Reference: publication PMC4166403 (Cell, 2014)

Key:
[1] = biological target: T1, pyruvate carboxylase (LmPC) (Listeria monocytogenes, UniProt Q8Y846); test: crystal structure; format: binding
T1 sequence (Q8Y846 1-1146): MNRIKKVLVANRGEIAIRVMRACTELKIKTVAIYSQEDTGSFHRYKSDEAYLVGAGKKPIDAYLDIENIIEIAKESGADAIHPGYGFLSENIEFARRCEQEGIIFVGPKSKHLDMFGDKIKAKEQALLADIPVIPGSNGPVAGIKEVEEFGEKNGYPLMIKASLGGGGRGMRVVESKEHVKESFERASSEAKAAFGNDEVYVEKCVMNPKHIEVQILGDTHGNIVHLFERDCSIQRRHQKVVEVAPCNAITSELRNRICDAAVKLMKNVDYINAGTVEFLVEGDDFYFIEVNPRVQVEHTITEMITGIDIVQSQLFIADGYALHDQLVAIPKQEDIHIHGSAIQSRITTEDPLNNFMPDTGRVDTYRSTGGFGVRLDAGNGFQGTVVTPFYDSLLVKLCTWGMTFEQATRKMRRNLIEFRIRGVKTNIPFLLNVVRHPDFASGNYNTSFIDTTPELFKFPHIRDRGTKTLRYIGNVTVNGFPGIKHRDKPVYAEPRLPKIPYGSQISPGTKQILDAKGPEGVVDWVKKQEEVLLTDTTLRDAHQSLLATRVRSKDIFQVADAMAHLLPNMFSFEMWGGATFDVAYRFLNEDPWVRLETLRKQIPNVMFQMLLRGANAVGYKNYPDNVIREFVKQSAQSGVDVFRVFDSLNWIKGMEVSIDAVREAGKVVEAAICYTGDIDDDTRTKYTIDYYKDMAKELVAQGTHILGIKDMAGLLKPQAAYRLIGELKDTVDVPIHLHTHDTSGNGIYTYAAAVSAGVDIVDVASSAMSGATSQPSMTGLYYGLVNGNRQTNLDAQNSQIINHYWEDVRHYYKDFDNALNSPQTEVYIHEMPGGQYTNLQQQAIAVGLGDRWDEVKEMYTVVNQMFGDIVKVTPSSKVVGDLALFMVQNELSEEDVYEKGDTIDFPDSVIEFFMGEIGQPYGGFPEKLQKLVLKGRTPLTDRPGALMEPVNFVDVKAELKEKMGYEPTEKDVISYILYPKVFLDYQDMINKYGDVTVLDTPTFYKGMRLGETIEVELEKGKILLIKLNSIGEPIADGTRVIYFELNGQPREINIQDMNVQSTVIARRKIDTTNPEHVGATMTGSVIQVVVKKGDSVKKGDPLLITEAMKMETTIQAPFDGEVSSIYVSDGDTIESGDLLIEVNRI

[2] = biological target: pyruvate carboxylase (LmPC) (Listeria monocytogenes, UniProt Q8Y846, Y722F); test: binding titration and enzyme inhibition of purified mutant
Lmo1466 = biological target: T2, Lmo1466 (Listeria monocytogenes, UniProt Q8Y746); test: DRaCALA with […]-c-di-AMP in E. coli lysate expressing the protein; format: cell-based
T2 sequence (Q8Y746 1-718): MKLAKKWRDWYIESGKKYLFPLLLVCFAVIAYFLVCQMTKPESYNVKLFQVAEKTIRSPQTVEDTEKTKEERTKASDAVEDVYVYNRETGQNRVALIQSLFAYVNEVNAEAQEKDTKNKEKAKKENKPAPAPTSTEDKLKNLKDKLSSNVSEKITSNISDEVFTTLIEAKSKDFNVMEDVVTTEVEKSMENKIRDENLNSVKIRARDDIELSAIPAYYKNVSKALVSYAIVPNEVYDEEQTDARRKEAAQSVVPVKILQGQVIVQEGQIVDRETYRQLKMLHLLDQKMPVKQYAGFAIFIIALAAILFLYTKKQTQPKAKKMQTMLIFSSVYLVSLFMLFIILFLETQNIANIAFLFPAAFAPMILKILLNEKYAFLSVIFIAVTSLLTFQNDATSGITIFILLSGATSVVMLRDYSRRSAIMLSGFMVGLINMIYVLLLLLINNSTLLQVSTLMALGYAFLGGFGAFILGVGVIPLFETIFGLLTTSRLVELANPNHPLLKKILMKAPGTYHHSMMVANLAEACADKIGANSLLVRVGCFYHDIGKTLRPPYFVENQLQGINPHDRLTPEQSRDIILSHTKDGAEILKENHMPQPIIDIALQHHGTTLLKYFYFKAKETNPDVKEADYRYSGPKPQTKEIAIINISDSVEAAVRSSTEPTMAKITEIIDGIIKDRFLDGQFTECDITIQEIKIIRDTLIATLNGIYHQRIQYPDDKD

PdeA (Lmo0052) = biological target: T3, PdeA (Lmo0052) (Listeria monocytogenes, UniProt A0A0H3GCG4); test: DRaCALA with […]-c-di-AMP, purified recombinant protein; format: binding
T3 sequence (A0A0H3GCG4 1-657): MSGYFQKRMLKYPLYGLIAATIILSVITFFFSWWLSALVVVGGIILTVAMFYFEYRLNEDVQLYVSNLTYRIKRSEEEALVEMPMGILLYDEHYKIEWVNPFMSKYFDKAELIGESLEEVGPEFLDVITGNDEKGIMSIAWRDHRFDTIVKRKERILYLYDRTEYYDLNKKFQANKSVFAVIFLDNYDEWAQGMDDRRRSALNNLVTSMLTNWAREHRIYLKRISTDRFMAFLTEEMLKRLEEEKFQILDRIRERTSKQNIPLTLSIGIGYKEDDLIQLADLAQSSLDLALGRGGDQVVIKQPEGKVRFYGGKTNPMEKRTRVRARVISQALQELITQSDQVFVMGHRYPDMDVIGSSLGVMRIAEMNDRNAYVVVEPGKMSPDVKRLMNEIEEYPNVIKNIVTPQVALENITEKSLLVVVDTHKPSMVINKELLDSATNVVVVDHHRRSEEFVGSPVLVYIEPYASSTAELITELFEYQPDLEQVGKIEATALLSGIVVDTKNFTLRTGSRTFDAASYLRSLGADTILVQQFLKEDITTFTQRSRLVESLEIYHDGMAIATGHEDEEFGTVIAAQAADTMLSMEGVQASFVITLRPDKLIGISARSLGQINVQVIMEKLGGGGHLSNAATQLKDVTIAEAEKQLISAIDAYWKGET

[3] = biological target: T1, pyruvate carboxylase (LmPC); test: PC activity assay with nucleotide analogues; format: biochemical
crystal structure = biological target: the molecule itself; test: crystal structure

Molecule: Nc1ncnc2c1ncn2[C@@H]1O[C@@H]2CO[P@@](=O)(O)O[C@H]3[C@@H](O)[C@H](n4cnc5c(N)ncnc54)O[C@@H]3CO[P@@](=O)(O)O[C@H]2[C@H]1O [cdA, c-di-AMP]
- Kd [1]: 8 ± 0.2 µM
- binding titration and enzyme inhibition of purified mutant [2]: binding to c-di-AMP was only observed for Y722F and none of the other amino acid variants
- DRaCALA with 32P-c-di-AMP in E. coli lysate expressing the protein (Lmo1466): A significant level of binding was observed for Lmo1466 and NrdR-expressing lysates, consistent with a direct interaction with c-di-AMP
- DRaCALA with 32P-c-di-AMP, purified recombinant protein (PdeA (Lmo0052)): as well as PdeA and LmPC exhibited binding in purified form

Molecule: O=c1[nH]cnc2c1ncn2[C@@H]1O[C@@H]2COP(=O)(O)O[C@H]3[C@@H](O)[C@H](n4cnc5c(=O)[nH]cnc54)O[C@@H]3COP(=O)(O)O[C@H]2[C@H]1O [c-di-IMP]
- PC activity assay with nucleotide analogues [3]: while c-di-IMP did show weak inhibitory activity

B1: Listeria monocytogenes pyruvate carboxylase (LmPC) (enzyme)
chain: T1 sequence (Q8Y846 1-1146)
modifications: biotin group on the BCCP domain (position not given)
- stoichiometry N (crystal structure): 4
